From publication PMC4977651, “Molecular features of biguanides required for targeting of mitochondrial respiratory complex I and activation of AMP-kinase” (BMC Biology, 2016)
Where “and” joins values, the source holds several entries; their conditions need not be identical. Equal entries are not always repeated.

Tests used:
[1] = biological target: isolated bovine heart complex I (Bos taurus, UniProt P03887+P03898+P17694+P42026); assay: NADH:decylubiquinone oxidoreduction by isolated complex I; type: biochemical; conditions: bovine heart purified mitochondrial complex I; for HillSlope (best fit value) / LogIC50 (best fit value): Prism fit; for HillSlope (best fit value): no std. error; for IC50: Prism log(inhibitor) vs. response fit, Bottom 0, Top 100, read-out: IC50 (best fit value); for LogIC50 (best fit value): log of IC50 in mM
Chain of isolated bovine heart complex I (P42026 38-216): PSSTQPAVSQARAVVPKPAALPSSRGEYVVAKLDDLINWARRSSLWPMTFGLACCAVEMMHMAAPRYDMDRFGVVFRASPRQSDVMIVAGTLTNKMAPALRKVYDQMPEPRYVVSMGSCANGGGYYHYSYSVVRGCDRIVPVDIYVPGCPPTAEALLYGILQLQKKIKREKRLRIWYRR
Chain of isolated bovine heart complex I (P17694 34-463): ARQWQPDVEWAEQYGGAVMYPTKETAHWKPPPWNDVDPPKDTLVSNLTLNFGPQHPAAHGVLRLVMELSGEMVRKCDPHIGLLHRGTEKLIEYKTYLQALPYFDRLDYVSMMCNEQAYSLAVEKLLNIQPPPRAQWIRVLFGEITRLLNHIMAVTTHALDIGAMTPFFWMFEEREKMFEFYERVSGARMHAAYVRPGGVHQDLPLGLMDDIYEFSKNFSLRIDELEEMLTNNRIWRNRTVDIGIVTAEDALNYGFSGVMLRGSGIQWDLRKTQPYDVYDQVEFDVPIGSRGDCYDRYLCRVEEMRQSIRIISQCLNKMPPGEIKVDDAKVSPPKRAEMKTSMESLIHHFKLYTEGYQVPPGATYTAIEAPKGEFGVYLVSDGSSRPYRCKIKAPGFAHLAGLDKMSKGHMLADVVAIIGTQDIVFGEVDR
Chain of isolated bovine heart complex I (P03898 whole entry): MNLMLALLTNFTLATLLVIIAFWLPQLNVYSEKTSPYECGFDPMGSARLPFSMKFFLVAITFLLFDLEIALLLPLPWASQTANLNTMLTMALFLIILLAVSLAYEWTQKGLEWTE
Chain of isolated bovine heart complex I (P03887 whole entry): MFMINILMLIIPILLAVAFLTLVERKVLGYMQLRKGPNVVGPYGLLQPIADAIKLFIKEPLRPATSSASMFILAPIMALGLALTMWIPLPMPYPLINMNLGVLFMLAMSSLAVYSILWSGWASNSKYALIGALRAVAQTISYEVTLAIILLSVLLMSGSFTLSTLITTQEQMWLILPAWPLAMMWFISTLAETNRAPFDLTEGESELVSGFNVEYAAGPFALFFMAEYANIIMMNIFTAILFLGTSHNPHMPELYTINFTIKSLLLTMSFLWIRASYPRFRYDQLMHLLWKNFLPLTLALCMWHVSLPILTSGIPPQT
Method: (§1) Complex I and mitochondrial membranes were prepared from Bos taurus (bovine) heart. Intact mitochondria were isolated from rat liver and mouse heart and liver. Membranes were prepared from mouse heart mitochondria by 5 s bursts of sonication at 4 °C and collected by centrifugation (75,000 × g, 1 h).
(§2) Assays were performed at 32 °C in a SpectraMax 96-well plate reader. NADH:decylubiquinone oxidoreduction by complex I at 0.5 μg mL^−1 was measured in 20 mM Tris-HCl (pH 7.2), 0.15 % soy bean asolectin (Avanti Polar Lipids), and 0.15 % 3-((3-cholamidopropyl)dimethylammonium)-1-propanesulfonate (CHAPS, Merck Chemicals Ltd), with 200 μM decylubiquinone and 200 μM NADH, and monitored using ε340–380(NADH) = 4.81 mM^−1 cm^−1 [23]. Catalysis was initiated by addition of NADH and maximal rates determined by linear regression. NADH:O2 oxidoreduction by membranes was measured similarly but using 5 μg mL^−1 membranes in 10 mM Tris-HCl (pH 7.4) and 250 mM sucrose using 200 μM NADH and supplemented with 0.15 mM horse heart cytochrome c (Sigma-Aldrich Ltd.). Succinate:O2 oxidoreduction was measured using 40 μg mL^−1 membranes in 5 mM succinate in 10 mM Tris-HCl (pH 7.4) as described previously. Control experiments included NaCl (to match the ionic strength) or DMSO, as appropriate.
(§3) Experimental values are reported as mean averages ± standard deviation (SD) of technical replicates for large sample sizes and mean averages ± standard error of the mean (SEM) of technical replicates for small sample sizes. Data were analyzed by the unpaired two-tailed Student’s t test. IC50 values were determined using the standard dose-effect relationship (activity (%) = 100 × IC50 / (IC50 + [inhibitor]^m) with the Hill Slope (m) set to unity for purified complex I) and are reported with 95 % confidence intervals.

[2] = tested on: mouse heart mitochondria; assay: ADP-stimulated rotenone-sensitive OCR in isolated mouse heart mitochondria; type: biochemical; parameters: rotenone sensitive OCR after ADP stimulation, individual replicates / rotenone sensitive OCR after ADP stimulation, average / rotenone sensitive OCR after 15 mins, average: unit not given here; conditions: for rotenone sensitive OCR after ADP stimulation, % of control, average / rotenone sensitive OCR after ADP stimulation, average: average of replicates; for rotenone sensitive OCR after ADP stimulation, % of control, individual replicates: replicate 1-11; for rotenone sensitive OCR after ADP stimulation, individual replicates: replicate 1-12
Method: as §1
Isolated mitochondria were monitored using a Seahorse XF96 extracellular flux analyzer at 32 °C. Mouse heart mitochondria, and mouse and rat liver mitochondria were plated into XF96 plates at 4 and 16–20 μg per well, respectively, in 220 mM mannitol, 70 mM sucrose, 10 mM KH2PO4, 5 mM MgCl2, 1 mM EGTA, 0.2 % fatty acid-free BSA, and 2 mM HEPES (pH 7.4 at 37 °C) with 10 mM glutamate and 10 mM malate and adhered by centrifugation (2000 × g, 20 min, 4 °C). The medium was supplemented with a further 5 mM glutamate and 5 mM malate and the mitochondria incubated for 15 min. Then two baseline readings were taken before the biguanides were added at IC50/5. […] Rotenone (2 μM) was added at the end of the experiment. Data from wells with failed port injections were excluded from the analyses. The RCR values (state III versus state IV respiration) were 3.4, 4.8, and 4.6 for mouse heart, rat liver, and mouse liver, respectively.

[3] = Octanol/PBS partition coefficient, shake-flask method; type: physicochemical; conditions: 32 °C, pH 7.4, n = 3
Method: Octanol/PBS partition coefficients were measured by the shake-flask method at 32 °C, pH 7.4.

[4] = tested on: permeabilized 143B cells; assay: ADP-stimulated rotenone-sensitive OCR in permeabilized 143B cells; type: cell-based, human; parameters: rotenone sensitive OCR after ADP stimulation, individual replicates / rotenone sensitive OCR after ADP stimulation, average: unit not given here; conditions: 143B permeabilised cells; for rotenone sensitive OCR after ADP stimulation, % of control, individual replicates / rotenone sensitive OCR after ADP stimulation, individual replicates: replicate 1-11
Method: For permeabilized cell experiments, cells were seeded into XF96 plates at 0.9–1.1 × 10^4 per well and incubated for 48 h at 37 °C in 5 % CO2. Then, the growth medium was exchanged for assay buffer containing 3 nM plasma membrane permeabilizer ‘PMP’ (Seahorse Biosciences Inc.), 10 mM glutamate, 10 mM malate, 220 mM mannitol, 70 mM sucrose, 10 mM KH2PO4, 5 mM MgCl2, 1 mM EGTA, 0.2 % fatty acid-free bovine serum albumin (BSA), and 2 mM HEPES (pH 7.4 at 37 °C). […] The biguanides were allowed to accumulate for 30 min, then respiration was […] by the addition of 4 mM ADP. Rotenone was added (2 μM) at the end of the experiment.
Rotenone-sensitive OCRs were calculated by subtracting the rotenone-insensitive rates (determined at the end of the experiment). OCRs were normalized by dividing by the OCR recorded immediately prior to the addition of biguanide. For rate of uptake calculations, the OCRs at time points after biguanide addition were divided by the OCRs at the same time points in control experiments. Data from wells with failed port injections were excluded from the analyses. The respiratory control ratio (RCR) values (state III versus state IV respiration) were ~11 and ~6 for permeabilized MDBK and 143B cells, respectively.

[5] = biological target: mouse heart mitochondrial membranes (complex I) (Mus musculus, UniProt P03888+P03899+Q91WD5+Q9DC70); assay: NADH:O2 oxidoreduction by mouse heart mitochondrial membranes; type: biochemical; conditions: for HillSlope (best fit value) / IC50 / LogIC50 (best fit value): Prism variable slope fit; for IC50: Bottom 0, Top 100, read-out: IC50 (best fit value); for LogIC50 (best fit value): log of IC50 in mM
Chain of mouse heart mitochondrial membranes (complex I) (P03899 whole entry): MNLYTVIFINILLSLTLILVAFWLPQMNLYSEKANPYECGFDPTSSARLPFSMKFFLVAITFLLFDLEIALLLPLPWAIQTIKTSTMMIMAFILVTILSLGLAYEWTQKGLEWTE
Chain of mouse heart mitochondrial membranes (complex I) (P03888 whole entry): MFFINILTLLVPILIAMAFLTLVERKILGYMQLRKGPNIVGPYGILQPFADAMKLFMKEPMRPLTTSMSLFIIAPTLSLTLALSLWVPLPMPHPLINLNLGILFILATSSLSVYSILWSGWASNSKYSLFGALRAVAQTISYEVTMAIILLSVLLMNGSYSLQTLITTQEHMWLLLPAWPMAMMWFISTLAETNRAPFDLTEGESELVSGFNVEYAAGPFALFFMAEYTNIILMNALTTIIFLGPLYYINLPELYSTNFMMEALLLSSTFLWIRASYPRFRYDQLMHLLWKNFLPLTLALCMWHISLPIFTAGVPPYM
Chain of mouse heart mitochondrial membranes (complex I) (Q9DC70 36-224): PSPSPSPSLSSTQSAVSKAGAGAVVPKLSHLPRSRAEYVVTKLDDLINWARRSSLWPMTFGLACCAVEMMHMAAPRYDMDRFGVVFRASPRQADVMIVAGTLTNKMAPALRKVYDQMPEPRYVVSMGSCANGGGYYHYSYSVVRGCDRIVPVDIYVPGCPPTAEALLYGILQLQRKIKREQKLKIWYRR
Chain of mouse heart mitochondrial membranes (complex I) (Q91WD5 34-463): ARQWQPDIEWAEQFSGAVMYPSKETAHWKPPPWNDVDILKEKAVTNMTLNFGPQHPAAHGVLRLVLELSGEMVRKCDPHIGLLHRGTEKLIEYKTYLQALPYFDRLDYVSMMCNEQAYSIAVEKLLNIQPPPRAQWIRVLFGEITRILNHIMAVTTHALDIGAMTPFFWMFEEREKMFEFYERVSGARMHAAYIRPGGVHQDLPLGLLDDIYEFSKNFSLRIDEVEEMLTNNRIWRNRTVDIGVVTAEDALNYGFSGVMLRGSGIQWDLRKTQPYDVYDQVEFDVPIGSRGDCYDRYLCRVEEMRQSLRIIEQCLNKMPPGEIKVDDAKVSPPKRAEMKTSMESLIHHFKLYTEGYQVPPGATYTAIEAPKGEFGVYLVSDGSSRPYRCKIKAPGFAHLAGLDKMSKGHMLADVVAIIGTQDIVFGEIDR
Method: as §1, §2, §3

[6] = inhibitor 0.62 mM, read-out: average % (rate, % of no-inhibitor control)
[7] = inhibitor 62.50 mM, read-out: average % (rate, % of no-inhibitor control)
[8] = inhibitor 0.50 mM, read-out: average % (rate, % of no-inhibitor control)
[9] = inhibitor 1.00 mM, read-out: average % (rate, % of no-inhibitor control)
[10] = inhibitor 5.00 mM, read-out: average % (rate, % of no-inhibitor control)
[11] = inhibitor 10.00 mM, read-out: average % (rate, % of no-inhibitor control)

## CC(C)N=C(N)N=C(N)N [compound 4, 1-(diaminomethylidene)-2-(propan-2-yl)guanidine]
[1]
  HillSlope (best fit value): 1
  IC50: 6.76 mM
  LogIC50 (best fit value): 0.8297
[1]; [6]
  remaining activity at 620 µM: 88.4%
[1]; inhibitor 1.56 mM, read-out: average % (rate, % of no-inhibitor control)
  remaining activity at 1560 µM: 84.5%
[1]; inhibitor 3.00 mM, read-out: average % (rate, % of no-inhibitor control)
  remaining activity at 3000 µM: 70.3%
[1]; inhibitor 5.80 mM, read-out: average % (rate, % of no-inhibitor control)
  remaining activity at 5800 µM: 54.5%
[1]; inhibitor 15.62 mM, read-out: average % (rate, % of no-inhibitor control)
  remaining activity at 15620 µM: 30.1%
[1]; inhibitor 31.25 mM, read-out: average % (rate, % of no-inhibitor control)
  remaining activity at 31250 µM: 16.1%
[1]; [7]
  remaining activity at 62500 µM: 5.52%
[2]
  rotenone sensitive OCR after ADP stimulation, % of control, average: 23.15 % of control
  rotenone sensitive OCR after ADP stimulation, average: 56.07
  rotenone sensitive OCR after ADP stimulation, % of control, individual replicates: 28.98 % of control and 23.60 % of control and 23.95 % of control and 23.54 % of control and 25.71 % of control and 23.25 % of control and 16.50 % of control and 19.68 % of control
  rotenone sensitive OCR after ADP stimulation, individual replicates: 70.20 and 57.15 and 58.01 and 57.01 and 62.27 and 56.30 and 39.95 and 47.67
[3]
  P (partition coefficient): 0.061
  logP: -1.21
[4]; average of replicates
  rotenone sensitive OCR after ADP stimulation, % of control, average: 4.94 % of control
  rotenone sensitive OCR after ADP stimulation, average: 11.79
[4]
  rotenone sensitive OCR after ADP stimulation, % of control, individual replicates: -1.48 % of control and 3.88 % of control and 15.33 % of control and 9.59 % of control and 8.04 % of control and 7.71 % of control and 5.26 % of control and 0.97 % of control and -3.74 % of control and 3.83 % of control
  rotenone sensitive OCR after ADP stimulation, individual replicates: -3.53 and 9.26 and 36.59 and 22.89 and 19.19 and 18.41 and 12.55 and 2.31 and -8.93 and 9.14
[5]
  HillSlope (best fit value): -1.082
  IC50: 30.1 mM
  LogIC50 (best fit value): 1.478
[5]; [6]
  remaining activity at 620 µM: 103%
[5]; inhibitor 1.32 mM, read-out: average % (rate, % of no-inhibitor control)
  remaining activity at 1320 µM: 99.1%
[5]; inhibitor 3.12 mM, read-out: average % (rate, % of no-inhibitor control)
  remaining activity at 3120 µM: 93.2%
[5]; inhibitor 6.25 mM, read-out: average % (rate, % of no-inhibitor control)
  remaining activity at 6250 µM: 80.8%
[5]; inhibitor 15.60 mM, read-out: average % (rate, % of no-inhibitor control)
  remaining activity at 15600 µM: 67.2%
[5]; [7]
  remaining activity at 62500 µM: 30.7%

## NC(N)=NC(N)=NCc1ccccc1 [compound 3, 2-benzyl-1-(diaminomethylidene)guanidine]
[1]
  HillSlope (best fit value): 1
  IC50: 0.567 mM
  LogIC50 (best fit value): -0.2463
[1]; inhibitor 0.10 mM, read-out: average % (rate, % of no-inhibitor control)
  remaining activity at 100 µM: 80%
[1]; inhibitor 0.20 mM, read-out: average % (rate, % of no-inhibitor control)
  remaining activity at 200 µM: 65.6%
[1]; [8]
  remaining activity at 500 µM: 52.1%
[1]; [9]
  remaining activity at 1000 µM: 41%
[1]; inhibitor 2.00 mM, read-out: average % (rate, % of no-inhibitor control)
  remaining activity at 2000 µM: 27.6%
[1]; [10]
  remaining activity at 5000 µM: 15.6%
[1]; [11]
  remaining activity at 10000 µM: 4.7%
[2]
  rotenone sensitive OCR after ADP stimulation, % of control, average: 28.02 % of control
  rotenone sensitive OCR after ADP stimulation, average: 67.86
  rotenone sensitive OCR after ADP stimulation, % of control, individual replicates: 41.93 % of control and 30.59 % of control and 30.48 % of control and 24.44 % of control and 22.36 % of control and 21.02 % of control and 20.43 % of control and 32.91 % of control
  rotenone sensitive OCR after ADP stimulation, individual replicates: 101.56 and 74.09 and 73.82 and 59.18 and 54.16 and 50.90 and 49.48 and 79.71
[3]
  P (partition coefficient): 0.184
  logP: -0.734
[4]
  rotenone sensitive OCR after ADP stimulation, % of control, individual replicates: 6.07 % of control and 2.51 % of control and 3.63 % of control and 7.99 % of control and 8.80 % of control and 18.64 % of control and 13.94 % of control and 7.14 % of control and 16.57 % of control and 2.18 % of control and 7.53 % of control
  rotenone sensitive OCR after ADP stimulation, individual replicates: 14.50 and 5.99 and 8.67 and 19.08 and 21.01 and 44.51 and 33.29 and 17.05 and 39.56 and 5.21 and 17.98
[5]
  HillSlope (best fit value): -1.132
  IC50: 3.18 mM
  LogIC50 (best fit value): 0.5023
[5]; inhibitor 0.13 mM, read-out: average % (rate, % of no-inhibitor control)
  remaining activity at 130 µM: 99.2%
[5]; inhibitor 0.25 mM, read-out: average % (rate, % of no-inhibitor control)
  remaining activity at 250 µM: 93.8%
[5]; [8]
  remaining activity at 500 µM: 86.3%
[5]; [9]
  remaining activity at 1000 µM: 85%
[5]; [10]
  remaining activity at 5000 µM: 35.4%
[5]; [11]
  remaining activity at 10000 µM: 25.3%
